In patent US20150283259A1, “DRUG-PROTEIN CONJUGATES” (priority 2012, published 2015):

Columns and labels:
[1] = test system: HER2-negative MCF-7 cells; assay: In vitro cell viability assay (Cell-Titer Glo Luminescence), HER2-negative cells; type: cell-based; details: 96 h incubation, 200-0.1 nM free AHX-DM1, 3 fold dilutions
Procedure: (§1) The in vitro efficacy of the antibody and Fab conjugates prepared in Examples 3 and 4 respectively were determined by measuring the inhibitory effect on cell growth of HER-2 receptor over-expressing cancer cell lines.
(§2) Loss of tumour cell viability following treatment with cytotoxic drugs or ADCs in vitro can be measured by growing cell lines in the presence of increasing concentrations of drugs or ADCs and quantifying the loss of proliferation or metabolic activity using Cell-Titer Glo® Luminescence reagent (Promega Corp. Technical Bullettin TB288; Lewis Phillips G. D, Cancer Res 2008; 68:9280-9290). […]
(§3) HER2-positive SK-BR-3 and HER2-negative MCF-7 cells were trypsinised with 3 mL Trypsin EDTA for 5-15 min. […] Cells were counted using a Neubauer haemocytometer and adjusted to a cell density of 3×10^4/mL for MCF-7 and 5×10^4/mL for SK-BR-3 respectively. […]
(§4) The cell viability assay was carried out using the Cell-Titer Glo® Luminescence reagent, as described by the manufacturer's instructions, (Promega Corp. Technical Bulletin TB288; Lewis Phillips G. D, Cancer Res 2008; 68:9280-9290). […]
(§5) Luminescence was recorded using a plate reader (e.g. MD SpectramaxM3 plate reader), and data subsequently analysed using a four parameter non-linear regression model.
(§6) Viability is expressed as % of untreated cells. […]

[2] = test system: HER2-positive SK-BR-3 cells; assay: In vitro cell viability assay (Cell-Titer Glo Luminescence), HER2-positive cells; type: cell-based; details: 96 h incubation, 40-0.018 nM, 2-fold dilutions, viability as % of untreated cells
Procedure: as §1, §2, §3, §4, §5, §6

Question: What does the source list for `COc1cc2cc(c1Cl)N(C)C(=O)C[C@H](OC(=O)[C@H](C)N(C)C(=O)CCCCCN)[C@]1(C)O[C@H]1[C@H](C)[C@@H]1C[C@@](O)(NC(=O)O1)[C@H](OC)/C=C/C=C(\C)C2` [AHX-DM1]?
Answer: IC50 [1]: 36.3 nM; IC50 [2]: 3.4 nM
